Data set [1] concerns PC3 cells. Description: PC3 cell proliferation, 3D activity assay (3D culture, 14 days). The class given is cell-based, human. Conditions: Homo sapiens, PC-3, 336 h, read-out: 3D inhibitory activity against PC3 cells IC50.
The subject of data set [2] is PC3 cells. Description: PC3 cell proliferation, 2D activity assay (Cell Titer-Lumi, 72 h). The class given is cell-based, human. Conditions: Homo sapiens, PC-3, read-out: 2D inhibitory activity against PC3 cells IC50.
The subject of data set [3] is phosphorylation at the FAK 397 site. Put plainly: Inhibition of Y397 phosphorylation in PC3 cells (ELISA). The class given is cell-based. Particulars: Homo sapiens, PC-3, 3 h treatment, read-out: IC50 against Y397 phosphorylation. The method, then: PC3 cells were seeded at 8000 cells/well. […] The inhibition percentage and IC50 of the compound were calculated compared to the DMSO group.

In data set [4] the test system is PC3 cells. Put plainly: Inhibition of PC3 cell low adsorption (adherent cell count, 4 h). Particulars: Homo sapiens, PC-3; 4 h treatment; read-out: IC50 against PC3 cell low adsorption. The data set is classed as cell-based. The method, then: PC3 cells were seeded at 8000 cells/well. 4 h after the cells were treated with a compound, the number of adherent cells was counted. The inhibition percentage and IC50 of the compound were calculated compared to the DMSO group.

The next data set concerns the target FAK recombinant protein (Homo sapiens (Human), UniProt Q05397). Put plainly: Inhibitory activity against FAK enzyme (HTRF, TK substrate). The class given is biochemical. The method, then:
A compound serially diluted with DMSO was mixed with a FAK recombinant protein. After the mixture was left to stand at room temperature for 10 min, a biotin-labeled TK substrate (TK) and ATP were added. […] The inhibition percentage and IC50 of the compound were calculated compared to the DMSO control group.

The subject of data set [5] is Human prostate cancer PC3 cells. Description: In vivo efficacy, PC3 xenograft in nude mice. The arrangement: species or system mouse. Conditions: PC-3 model, 25 mg/kg, QD (21 days), PO. How it is done: The groups were as follows: 1) a solvent control group, 8 mice; and 2) a control compound group and a test compound group, 8 mice each. The mice in the solvent control group were intragastrically administered 0.5% CMC-Na twice a day; the mice in the compound groups were intragastrically administered 0.5% MC-Tween-80 suspension once a day. On Tuesday and Thursday each week, tumor volumes and body weight of the mice were measured, and the nude mice were sacrificed on day 21 after the administration. […] The toxicity of the compounds was evaluated according to the body weight of the mice.

Data set [6] can be described thus: In vivo pharmacokinetic experiment in CD-1 mice. Conditions: mouse, plasma, CD-1 female mice; for Vd: read-out: Vdss. How it is done:
[…] The mice were fasted for at least 12 h before the administration and given food 4 h after the administration, and they were given ad libitum access to water during the experiment.
On the day of the experiment, animals in the intravenous group were given the corresponding compound by single injection via the tail vein at an administration volume of 10 mL/kg; and animals in the oral group were given the corresponding compound by single intragastric injection at an administration volume of 10 mL/kg. The animals were weighed before administration, and the administration volume was calculated according to the body weight. The sample collection time points were 0.083 h, 0.167 h, 0.5 h, 1 h, 2 h, 4 h, 8 h, and 24 h. About 200 μL of whole blood was collected through the orbital venous plexus at each time point and used to prepare plasma for concentration determination by high-performance liquid chromatography-tandem mass spectrometry (LC-MS/MS). The plasma concentrations were processed using a non-compartmental model of Winnolin pharmacokinetic software, and the pharmacokinetic parameters were calculated using a linear-log trapezoidal method.

Data set [7] deals with Human pancreatic cancer Mia PaCa-2 cells. Put plainly: In vivo efficacy, Mia PaCa-2 xenograft in nude mice. Also on record: species or system mouse. Conditions: MiaPaCa-2 model, 25 mg/kg PO QD 21 days. How it is done: The groups were as follows: 1) a solvent control group, 8 mice; and 2) a control compound group and a test compound group, 8 mice each. The mice in the solvent control group were intragastrically administered 0.5% CMC-Na twice a day; the mice in the compound groups were intragastrically administered 0.50% MC-Tween-80 suspension once a day. On Tuesday and Thursday each week, tumor volumes and body weight of the mice were measured, and the nude mice were sacrificed on day 21 after the administration. […] The toxicity of the compounds was evaluated according to the body weight of the mice.

Bounds are passed on as bounds.

FAK recombinant protein, sequence (Q05397 whole entry): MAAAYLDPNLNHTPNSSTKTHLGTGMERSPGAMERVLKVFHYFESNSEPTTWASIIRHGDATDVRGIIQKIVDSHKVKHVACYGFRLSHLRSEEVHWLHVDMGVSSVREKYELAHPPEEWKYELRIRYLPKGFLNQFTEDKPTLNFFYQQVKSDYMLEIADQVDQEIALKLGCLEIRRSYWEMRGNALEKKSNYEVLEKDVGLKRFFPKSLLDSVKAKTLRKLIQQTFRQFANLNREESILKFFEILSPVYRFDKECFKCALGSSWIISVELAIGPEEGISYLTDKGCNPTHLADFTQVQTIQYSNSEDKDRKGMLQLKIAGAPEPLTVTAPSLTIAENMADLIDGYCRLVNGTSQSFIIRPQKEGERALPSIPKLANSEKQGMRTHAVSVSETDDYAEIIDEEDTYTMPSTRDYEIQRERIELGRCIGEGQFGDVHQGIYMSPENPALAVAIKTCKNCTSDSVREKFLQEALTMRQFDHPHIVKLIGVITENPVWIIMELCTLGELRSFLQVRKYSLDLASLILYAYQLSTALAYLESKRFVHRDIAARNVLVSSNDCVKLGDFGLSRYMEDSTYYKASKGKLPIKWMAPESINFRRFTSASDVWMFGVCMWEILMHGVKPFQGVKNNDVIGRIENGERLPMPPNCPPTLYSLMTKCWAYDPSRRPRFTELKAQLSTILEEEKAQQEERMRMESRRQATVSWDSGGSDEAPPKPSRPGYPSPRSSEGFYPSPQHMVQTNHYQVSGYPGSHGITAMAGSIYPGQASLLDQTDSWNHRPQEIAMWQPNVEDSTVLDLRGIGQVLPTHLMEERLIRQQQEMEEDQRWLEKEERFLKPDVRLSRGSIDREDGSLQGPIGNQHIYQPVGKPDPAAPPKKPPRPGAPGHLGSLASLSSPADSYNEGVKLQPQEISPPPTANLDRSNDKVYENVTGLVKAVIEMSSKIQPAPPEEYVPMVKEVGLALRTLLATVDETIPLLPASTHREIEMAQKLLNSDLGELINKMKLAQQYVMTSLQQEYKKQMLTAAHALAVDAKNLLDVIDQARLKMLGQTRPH

Turning to `COc1cc(N2CCC(N3CCN(C)CC3)CC2)ccc1Nc1ncc(Cl)c(Oc2cccc3c2C(=O)N(C)C32CC2)n1` [Compound 139], the concentration for half-maximal inhibition (IC50) is 1.7 nM in the data set with PC3 cells [1]; above 2000 nM in the data set on PC3 cells [2]; 0.56 nM in data set [3]; 5.2 nM in the data set with PC3 cells [4]; below 20 nM at FAK recombinant protein.
`COc1cc(C(=O)NC2CCN(C)CC2)c(F)cc1Nc1ncc(C(F)(F)F)c(Oc2cccc3c2C(=O)N(C)C32CC2)n1` [Compound 4]: the “TGI(%)” value in data set [5] is listed as 61.48%. In addition, in data set [6] (iv, injection (1 mg/kg)), the AUC(0-t) was determined as 489 ng·h/mL, the clearance is 34 mL/min/kg, the half-life is 1.78 h and the Vd was 4.35 L/kg. In addition, in data set [6] (oral administration (10 mg/kg)), the AUC(0-t) is 2090 ng·h/mL, the highest level (Cmax) was 361 ng/mL, the Tmax worked out at 4 h and the bioavailability was 42.6%. Further, the IC50 with PC3 cells [1] came out at 2.01 nM. In addition, the IC50 with PC3 cells [2] is above 2000 nM. In data set [3], the IC50 turned out to be 0.025 nM. In addition, the IC50 with PC3 cells [4] was determined as 6.87 nM. Besides, the IC50 on FAK recombinant protein was below 20 nM. Moreover, the “TGI(%)” value in data set [7] came to 69.02%.
As for `COc1cc(C(=O)NC2CCN(C)CC2)ccc1Nc1ncc(Cl)c(Oc2cccc3c2C(=O)N(C)C32CC2)n1` [Compound 114, 4-((5-chloro-4-((2′-methyl-3′-oxospiro[cyclopropane-1,1′-isoindolin]-4′-yl)oxy)pyrimidin-2-yl)amino)-3-methoxy-N-(1-methylpiperidin-4-yl)benzamide], the IC50 with PC3 cells [1] is 1.09 nM; in the data set on PC3 cells [2], above 2000 nM; in data set [3] it was 0.39 nM; in the data set on PC3 cells [4] it was 2.85 nM; at FAK recombinant protein it was below 20 nM.
As for `COc1cc(N2CCN(C)CC2)ccc1Nc1ncc(C(F)(F)F)c(Oc2cccc3c2C(=O)N(C)C32CC2)n1` [Compound 73], the “TGI(%)” value in data set [5] turned out to be 74.07%. Besides, in data set [6] (iv, injection (1 mg/kg)), the AUC(0-t) turned out to be 414 ng·h/mL, the clearance came to 40.2 mL/min/kg, the half-life was 1.93 h and the Vd was determined as 5.67 L/kg. In data set [6] (oral administration (10 mg/kg)), the AUC(0-t) was determined as 2890 ng·h/mL, the Cmax is 624 ng/mL, the Tmax was 0.5 h and the bioavailability was determined as 59.3%. In addition, the half-life in data set [6] (oral administration (10 mg/kg)) was 3.32 h. For the same compound, the IC50 with PC3 cells [1] came to 1.99 nM. Besides, the IC50 with PC3 cells [2] is above 10000 nM. Moreover, the IC50 in data set [3] came out at 0.028 nM. Besides, the IC50 with PC3 cells [4] is 5.01 nM. The IC50 at FAK recombinant protein is below 20 nM.
Regarding `COc1cc(N2CCC(N3CCN(C)CC3)CC2)ccc1Nc1ncc(C(F)(F)F)c(Oc2cccc3c2C(=O)N(C)C32CC2)n1` [Compound 78], the IC50 in the data set with PC3 cells [1] is 0.78 nM; in the data set with PC3 cells [2], above 10000 nM; in data set [3] it was below 0.01 nM; in the data set with PC3 cells [4], 5.83 nM; on FAK recombinant protein, below 20 nM.
As to `COc1cc(N2CC3(CCN(C)CC3)C2)ccc1Nc1ncc(C#N)c(Oc2cccc3c2C(=O)N(C)C32CC2)n1` [Compound 196, 2-((2-methoxy-4-(7-methyl-2,7-diazaspiro[3.5]nonan-2-yl)phenyl)amino)-4-((2′-methyl-3′-oxospiro[cyclopropane-1,1′-isoindolin]-4′-yl)oxy)pyrimidine-5-carbonitrile], the IC50 is 0.33 nM with PC3 cells [1]; above 2000 nM with PC3 cells [2]; 0.05 nM in data set [3]; 1.6 nM in the data set with PC3 cells [4]; below 20 nM at FAK recombinant protein.
For `COc1cc(N2CC3(CCN(C)CC3)C2)ccc1Nc1ncc(Br)c(Oc2cccc3c2C(=O)N(C)C32CC2)n1` [Compound 177, 4′-((5-bromo-2-((2-methoxy-4-(7-methyl-2,7-diazaspiro[3.5]nonan-2-yl)phenyl)amino)pyrimidin-4-yl)oxy)-2′-methylspiro[cyclopropane-1,1′-isoindolin]-3′-one], in data set [6] (iv, injection (1 mg/kg)), the AUC(0-t) amounted to 1110 ng·h/mL, the clearance was determined as 15 mL/min/kg, the half-life is 5.89 h and the Vd is 7.51 L/kg. Moreover, in data set [6] (oral administration (10 mg/kg)), the AUC(0-t) came out at 7450 ng·h/mL, the Cmax was found to be 815 ng/mL, the Tmax turned out to be 2 h and the bioavailability amounted to 67%. Also, the half-life in data set [6] (oral administration (10 mg/kg)) is 3.37 h. In the data set with PC3 cells [1], the IC50 turned out to be 0.38 nM. For the same compound, the half-maximal inhibitory concentration (IC50) with PC3 cells [2] is above 2000 nM. For the same compound, the IC50 in data set [3] was determined as 0.02 nM. In addition, the IC50 with PC3 cells [4] is 1.86 nM. Moreover, the IC50 at FAK recombinant protein is below 20 nM.
For `COc1cc(C(=O)NC2CCN(C)CC2)c(F)cc1Nc1ncc(Cl)c(Oc2cccc3c2C(=O)N(C)C32CC2)n1` [Compound 117], in data set [6] (iv, injection (1 mg/kg)), the AUC(0-t) worked out at 640 ng·h/mL, the clearance amounted to 26.1 mL/min/kg, the half-life is 1.81 h and the Vd came out at 3.47 L/kg. Besides, in data set [6] (oral administration (10 mg/kg)), the AUC(0-t) was determined as 7850 ng·h/mL, the highest level (Cmax) was 822 ng/mL, the Tmax amounted to 2 h and the bioavailability is 123%. The compound further gave a half-life in data set [6] (oral administration (10 mg/kg)) of 2.22 h. In addition, in the data set on PC3 cells [1], the IC50 lay within 5 to 50 nM. Further, the IC50 in the data set on PC3 cells [2] was above 2000 nM. For the same compound, the IC50 in data set [3] is 0.7 nM. For the same compound, the IC50 in the data set with PC3 cells [4] amounted to 4.6 nM. Moreover, at FAK recombinant protein, the IC50 is below 20 nM. In data set [7], the “TGI(%)” value turned out to be 62.86%.
Consider `COc1cc(N2CC3(CCN(C)CC3)C2)c(F)cc1Nc1ncc(Br)c(Oc2cccc3c2C(=O)N(C)C32CC2)n1` [Compound 178], for which the IC50 in the data set with PC3 cells [1] is 0.38 nM; in the data set on PC3 cells [2], above 2000 nM; with PC3 cells [4], 6.22 nM; at FAK recombinant protein, below 20 nM. Moreover, the “TGI(%)” value in data set [7] is reported as 82.41%.
Consider `COc1cc(N2CC3(CCN(C)CC3)C2)c(F)cc1Nc1ncc(Cl)c(Oc2cccc3c2C(=O)N(C)C32CC2)n1` [Compound 137, 4′-((5-chloro-2-((5-fluoro-2-methoxy-4-(7-methyl-2,7-diazaspiro[3.5]nonan-2-yl)phenyl)amino)pyrimidin-4-yl)oxy)-2′-methylspiro[cyclopropane-1,1′-isoindolin]-3′-one], for which the “TGI(%)” value in data set [5] is 76.39%. Further, in data set [6] (iv, injection (1 mg/kg)), the AUC(0-t) was 1390 ng·h/mL, the clearance stood at 12 mL/min/kg, the half-life was 3.67 h and the Vd is 3.71 L/kg. In addition, in data set [6] (oral administration (10 mg/kg)), the AUC(0-t) came to 12400 ng·h/mL, the Cmax was 810 ng/mL, the Tmax came out at 4 h and the bioavailability worked out at 89.4%. Also, the half-life in data set [6] (oral administration (10 mg/kg)) was 4.19 h. Besides, the IC50 in the data set with PC3 cells [1] amounted to 1.4 nM. For the same compound, the IC50 with PC3 cells [2] is above 10000 nM. The IC50 in data set [3] worked out at 0.08 nM. Moreover, the IC50 with PC3 cells [4] worked out at 1.71 nM. Further, the half-maximal inhibitory concentration (IC50) on FAK recombinant protein is below 20 nM. For the same compound, in data set [7], the “TGI(%)” value came to 87.68%.

For the origin of these results see patent publication US20250154134A1, “COMPOUND AS FAK INHIBITOR AND USE THEREOF” (WIGEN BIOMEDICINE TECHNOLOGY (SHANGHAI) CO., LTD., priority 2022, published 2025).
